According to the NIST ThermoML archive (doi:10.1016/j.tca.2017.06.023):
± gives the expanded uncertainty stated by the source.

How the values were obtained:
[1] = 100 kPa, Liquid; for viscosity: Capillary tube (Ostwald / Ubbelohde) method; for speed of sound: Frequency=3 MHz, Sing-around technique in a fixed-path interferometer; for mass density: Vibrating tube method
[2] = refractive index (Na D-line) (dimensionless); conditions: 100 kPa, Liquid, Standard Abbe refractometry
[3] = refractive index (Na D-line) (dimensionless); xn = mol fraction of the nth substance listed; conditions: 100 kPa, Liquid, Standard Abbe refractometry, x2 = 0
[4] = xn = mol fraction of the nth substance listed; conditions: 100 kPa, Liquid, x2 = 0; for viscosity: Capillary tube (Ostwald / Ubbelohde) method; for speed of sound: Frequency=3 MHz, Sing-around technique in a fixed-path interferometer; for mass density: Vibrating tube method

**Q.** What does the source list for CC(C)O [propan-2-ol]?
**A.** viscosity ([1]; 283.15 K): 3.306 ± 0.069 mPa·s; speed of sound ([1]; 283.15 K): 1191.9 ± 1.2 m/s; mass density ([1]; 283.15 K): 793.41 ± 0.24 kg/m3; viscosity ([1]; 298.15 K): 2.051 ± 0.043 mPa·s; speed of sound ([1]; 298.15 K): 1139.2 ± 1.2 m/s; mass density ([1]; 298.15 K): 781.07 ± 0.24 kg/m3; viscosity ([1]; 313.15 K): 1.334 ± 0.028 mPa·s; speed of sound ([1]; 313.15 K): 1086.6 ± 1.2 m/s; mass density ([1]; 313.15 K): 768 ± 0.24 kg/m3; refractive index ([2]; 283.15 K): 1.38149 ± 0.00033; refractive index ([2]; 298.15 K): 1.37505 ± 0.00033; refractive index ([2]; 313.15 K): 1.36829 ± 0.00033

**Q.** For CCC(C)O (stereo not drawn) [butan-2-ol], which viscosity ([1]; 283.15 K) is on record?
**A.** 5.652 ± 0.12 mPa·s

**Q.** What about the speed of sound ([1]; 283.15 K) of the same compound?
**A.** 1266 ± 1.3 m/s

**Q.** What about the mass density ([1]; 283.15 K) of the same compound?
**A.** 814.99 ± 0.24 kg/m3

**Q.** And the viscosity ([1]; 298.15 K)?
**A.** 3.07 ± 0.064 mPa·s

**Q.** And the speed of sound ([1]; 298.15 K)?
**A.** 1212.2 ± 1.3 m/s

**Q.** And the mass density ([1]; 298.15 K)?
**A.** 802.71 ± 0.24 kg/m3

**Q.** And the viscosity ([1]; 313.15 K)?
**A.** 1.796 ± 0.037 mPa·s

**Q.** And the speed of sound ([1]; 313.15 K)?
**A.** 1157.6 ± 1.2 m/s

**Q.** What about the mass density ([1]; 313.15 K) of the same compound?
**A.** 789.86 ± 0.24 kg/m3

**Q.** What about the refractive index ([2]; 283.15 K) of the same compound?
**A.** 1.40126 ± 0.00033

**Q.** And the refractive index ([2]; 298.15 K)?
**A.** 1.39515 ± 0.00033

**Q.** What about the refractive index ([2]; 313.15 K) of the same compound?
**A.** 1.38878 ± 0.00033

**Q.** With CC(C)O [propan-2-ol] + CC(=O)N(C)C as the compound, how does the refractive index ([3]; 283.15 K) read?
**A.** 1.38149 ± 0.00033

**Q.** What about the refractive index ([3]; 298.15 K) of the same compound?
**A.** 1.37505 ± 0.00033

**Q.** And the refractive index ([3]; 313.15 K)?
**A.** 1.36829 ± 0.00033

**Q.** What about the viscosity ([4]; 283.15 K) of the same compound?
**A.** 3.306 ± 0.069 mPa·s

**Q.** And the speed of sound ([4]; 283.15 K)?
**A.** 1191.9 ± 1.2 m/s

**Q.** What about the mass density ([4]; 283.15 K) of the same compound?
**A.** 793.41 ± 0.24 kg/m3

**Q.** What about the viscosity ([4]; 298.15 K) of the same compound?
**A.** 2.051 ± 0.043 mPa·s

**Q.** What about the speed of sound ([4]; 298.15 K) of the same compound?
**A.** 1139.2 ± 1.2 m/s

**Q.** And the mass density ([4]; 298.15 K)?
**A.** 781.07 ± 0.24 kg/m3

**Q.** And the viscosity ([4]; 313.15 K)?
**A.** 1.334 ± 0.028 mPa·s

**Q.** And the speed of sound ([4]; 313.15 K)?
**A.** 1086.6 ± 1.2 m/s

**Q.** What about the mass density ([4]; 313.15 K) of the same compound?
**A.** 768 ± 0.24 kg/m3

**Q.** For CCC(C)O (stereo not drawn) [butan-2-ol] + CC(=O)N(C)C, which refractive index ([3]; 283.15 K) is on record?
**A.** 1.40126 ± 0.00033

**Q.** And the refractive index ([3]; 298.15 K)?
**A.** 1.39515 ± 0.00033

**Q.** What about the refractive index ([3]; 313.15 K) of the same compound?
**A.** 1.38878 ± 0.00033

**Q.** And the viscosity ([4]; 283.15 K)?
**A.** 5.652 ± 0.12 mPa·s

**Q.** And the speed of sound ([4]; 283.15 K)?
**A.** 1266 ± 1.3 m/s

**Q.** What about the mass density ([4]; 283.15 K) of the same compound?
**A.** 814.99 ± 0.24 kg/m3

**Q.** What about the viscosity ([4]; 298.15 K) of the same compound?
**A.** 3.07 ± 0.064 mPa·s

**Q.** And the speed of sound ([4]; 298.15 K)?
**A.** 1212.2 ± 1.3 m/s

**Q.** What about the mass density ([4]; 298.15 K) of the same compound?
**A.** 802.71 ± 0.24 kg/m3

**Q.** And the viscosity ([4]; 313.15 K)?
**A.** 1.796 ± 0.037 mPa·s

**Q.** And the speed of sound ([4]; 313.15 K)?
**A.** 1157.6 ± 1.2 m/s

**Q.** And the mass density ([4]; 313.15 K)?
**A.** 789.86 ± 0.24 kg/m3
